According to patent US5763413A, “Lewis-associated compound, process for producing the same, and anti-inflammatory” (MECT Corporation, priority 1993, dated 1998):

Columns and labels:
[1] = Simple acute toxicity test (intravenous injection); format: in vivo, male mice of ddY strain; settings: 50 mg/kg, ddY mice; for Mortality: i.v. (tail vein); for mortality (in words): i.v.
Experimental: Example of Test 1 (Simple Acute Toxicity Test)
The simple acute toxicity test was carried out by an intravenous injection of compounds of the present invention.
Into the tail vein of male mice of ddY strain weighing 18~20 g which have been kept under the conditions at the temperature of 23°±1° C. and in the humidity of 55 ±7% were injected a solution of the compound of the present invention dissolved in the physiological saline containing the desired dose per 20 g body weighing 0.2 ml. Two dosages of which were 50 mg/kg and 500 mg/kg body weight were used.

passive Arthus reaction [2] = assay: Anti-inflammatory activity test: passive Arthus reaction (Example of Test 2); format: in vivo, male guinea pigs of the Hartley strain; settings: Table 21; 0.1 mg/kg i.v., 30 min before antigen
Experimental: Example of Test 2 (Anti-inflammatory Activity Test)
(§1) Male guinea pigs of the Hartley strain weighing 200~250 g were used.
(2) Experimental Materials
(§2) The anti-ovalbumin rabbit serum (PCA titer=1/80,000) and ovalbumin were used as the antiserum and antigen, respectively.
(§3) The passive Arthus reaction was performed according to the method of Katayama et al. [Katayama, S. et al., Arzeim-Forsch., 31, 1196 (1981)]. That is, guinea pigs were sensitized by an intravenous injection of said anti-ovalbumin rabbit serum (2.5 ml/kg). Thirty minutes after the injection, the Arthus reaction was induced by the intradermal injection of an antigen solution (0.05 ml) containing 0.10 mg of ovalbumin to the abdomen shaved the day before. Two hours after the antigen challenge, the area of intradermal bleeding was measured and used as the index representing the grade of inflammatory reaction. Test compounds were intravenously injected 30 min before the antigen injection. Four guinea pigs per each group were used.
(§4) The percent inhibi- is expressed as the bleeding area of the challenged site (%) of the animal group injected with each compound relative to that (100%) of the group administered with the physiological saline.

[3] = tested on: adhesion of HL-60 cells to HUVEC monolayers (ELAM-1); assay: Effect on the adhesion of HL-60 cells to HUVEC monolayers mediated by an adhesion molecule; format: cell-based, human; settings: 10 μg/ml final, in lecithin/cholesterol liposome, IL-1β-stimulated HUVEC
Experimental: (Effect on the Adhesion of Cultured Cells Mediated by a Adhesion Molecule)
(2) Experimental methods and materials
HUVECs (Human umbilical vein endothelial cells: KURABO) were suspended in E-GM UV medium at the concentration of 5×10^3 cells/ml, 100-μl each aliquot thereof was distributed into a 96-well microplate and incubated in a 5% CO2 containing air at 37° C. with the medium being replaced fresh 24 h later. The culture was continued for another 5 days, and the following experiment was performed after the confluent growth of the cells was confirmed.
In order to express ELAM-1 on HUVEC monolayers, IL-1β (IL-1β, Human, Recombinant: Genzym) was added to said culture (final concentration, 10 units/ml) and incubated for 4 h, then the test compound (final concentration, 10 μg/ml) containing liposome prepared with lecithin and cholesterol was added and further incubated or 1 h. Then human promyelocytic leukemia cell line […] which had been cultured was added to said culture at the final concentration of 5×10^5 cells/ml and incubated for 15 min. After washing said culture with the culture medium 3 times to remove the non-adhering HL-60 cells, said culture was gently stirred overnight to strip HL-60 cells adhering to HUVEC monolayers and count. Percent inhibition of adhesion (%) was calculated from the following equation [Margaret, J. et al., Proc. Natl. Acad. Sci. USA, 88, 6224 (1991)]. […]

passive Arthus reaction [4] = assay: Anti-inflammatory activity test, carried out as Example of Test 2 (Example of Test 3); format: in vivo, male guinea pigs of the Hartley strain; settings: Table 22, i.v.
Experimental: as §1, §2, §3, §4
The anti-inflammatory activity test of compounds of the present invention was similarly carried out as in the case of Example of Test 2.

| SMILES | Mortality [1] | mortality (in words) [1] | Percent inhibition (passive Arthus reaction) (passive Arthus reaction [2]) | Adhesion inhibitory activity [3] | Percent inhibition (passive Arthus reaction) (passive Arthus reaction [4]; 0.01 mg/kg) | Percent inhibition (passive Arthus reaction) (passive Arthus reaction [4]; 0.1 mg/kg) | Percent inhibition (passive Arthus reaction) (passive Arthus reaction [4]; 0.001 (unit of dose not given)) |
| --- | --- | --- | --- | --- | --- | --- | --- |
| CCCCCCCCCCCCCC=CC(O)C(COC1OC(CO)C(OC2OC(CO)C(O)C(OC3OC(CO)C(OC4OC(CO)C(O)C(OS(=O)(=O)[O-])C4OS(=O)(=O)[O-])C(OC4OC(C)C(O)C(O)C4O)C3NC(C)=O)C2O)C(O)C1O)NC(=O)CCCCCCCCCCCCCCCCCCCCCCC.[Na+].[Na+] (centres unmarked) [Compound 77] | 0/3 | no mortality was observed | 40.4 ± 5.1% | 21.0 ± 15.0% | – | – | – |
| CCCCCCCCCCCCCC=CC(O)C(COC1OC(CO)C(OC2OC(CO)C(O)C(OC3OC(CO)C(OC4OC(CO)C(O)C(OS(=O)(=O)[O-])C4O)C(OC4OC(C)C(O)C(O)C4O)C3NC(C)=O)C2O)C(O)C1O)NC(=O)CCCCCCCCCCCCCCCCCCCCCCC.[Na+] (centres unmarked) [Compound 78] | 0/3 | no mortality was observed | 32.5 ± 7.3% | 20.7 ± 3.7% | – | – | – |
| CCCOC1OC(CO)C(OC2OC(C)C(O)C(O)C2O)C(OC2OC(CO)C(OS(=O)(=O)[O-])C(O)C2O)C1NC(C)=O.[Na+] (centres unmarked) [Compound 190] | – | – | – | – | 79.3 ± 4.7% | 76.9 ± 4.1% | 12.7 ± 6.3% |
